Columns and labels:
[1] = tested on: patients with Wilson disease (WD); format: in vivo
From the text: Adverse events were reported by the patient (or, when appropriate, by a caregiver, surrogate, or the patient's legally authorized representative). The Investigator and any qualified designees were responsible for detecting, documenting, and recording events that meet the definition of an AE or SAE and remain responsible for following up AEs that were serious, considered related to the study intervention or study procedures, or that caused the patient to discontinue the study.
The safety analysis was performed on the Safety Analysis Set. This dataset includes all patients who received at least 1 dose of randomized treatment. Patients were summarized according to the treatment actually received.
Acute worsening of neurologic symptoms typically within 6 months of start of therapy is a known complication associated with chelation therapy for WD. […] Neurologic AESI for Study 301 were considered as all AEs in the Medical Dictionary for Regulatory Activities (MedDRA) System Organ Class (SOC) “Nervous system disorders” or any other AE judged by the Investigator as an AESI.

[2] = tested on: patients with Wilson disease (WD); experiment: Unified Wilson Disease Rating Scale (UWDRS) Part II total score (disability); format: in vivo, human; conditions: for UWDRS Part II (0-40) change from baseline, Mean (SD): pooled Studies 301 and 201; for UWDRS Part II (0-40) change from baseline, LSM / UWDRS Part II (0-40) change from baseline, Mean: Study 301 TTM long term set
From the text: Unified Wilson Disease Rating Scale (Parts I, II, and III): The UWDRS is a clinical rating scale designed to evaluate the neurological manifestations of WD that generally can be divided into 3 movement disorder syndromes: dystonic, ataxic, and Parkinsonian syndrome. The UWDRS comprises 3 parts: UWDRS Part I (level of consciousness, item 1), UWDRS Part II (a patient-reported review of daily activity items [disability], items 2 to 11), and UWDRS Part III (a detailed neurological examination, items 12 to 34).
The UWDRS Part I and Part III were assessed by a neurologist who is blinded to the treatment randomization, while UWDRS Part II may be reported to a non-blinded member of the study team by the patient, family member, or caregiver. The UWDRS has not been formally evaluated in adolescents. However, the components of Part I (level of consciousness), Part II (patient or caregiver-reported disability) and Part III (neurologic examination findings) were not fundamentally different between adults and adolescents. Patients aged 12 years and older were expected to be able to comply with UWDRS assessments.
Pooled results from all such participants will be integrated together into one timeline to allow analyses of changes in UWDRS, long-term copper control, and long-term safety laboratory data.

[3] = human, in vivo
[4] = Primary Evaluation Period, 48 Weeks

## bis-choline tetrathiomolybdate [TTM]
[1]; Primary Evaluation Period
  AEs in SOC Ear and labyrinth disorders: 5.1%
  AEs in SOC Hepatobiliary disorders: 6.6%
  AEs in SOC Investigations: 33.6%
  AEs in SOC Psychiatric disorders: 19.0%
  AEs in SOC Skin and subcutaneous tissue disorders: 21.9%
  incidence of SAEs, Nervous system disorders: 4.4%
  incidence of headache: 8.0%
  incidence of tremor: 7.3%
  participants with highest severity Grade 1 AEs, Nervous system disorders: 24.1%
  participants with highest severity Grade 2 AEs, Nervous system disorders: 13.9%
[1]; [4]
  Alanine aminotransferase increased AE, % participants: 14.6%
  Alanine aminotransferase increased AE, N participants: 20
  Aspartate aminotransferase increased AE, % participants: 2.9%
  Aspartate aminotransferase increased AE, N participants: 4
  Ear and labyrinth disorders (SOC) AE, % participants: 5.1%
  Ear and labyrinth disorders (SOC) AE, N participants: 7
  Fatigue AE, % participants: 9.5%
  Fatigue AE, N participants: 13
  Gamma-glutamyltransferase increased AE, % participants: 2.2%
  Gamma-glutamyltransferase increased AE, N participants: 3
  Hepatic enzyme increased AE, % participants: 2.2%
  Hepatic enzyme increased AE, N participants: 3
  Hepatobiliary disorders (SOC) AE, % participants: 6.6%
  Hepatobiliary disorders (SOC) AE, N participants: 9
  Investigations (SOC) AE, % participants: 33.6%
  Investigations (SOC) AE, N participants: 46
  Nervous system disorders (SOC) AE, % participants: 34.3%
  Nervous system disorders (SOC) AE, N participants: 47
  Neutrophil count decreased AE, % participants: 1.5%
  Neutrophil count decreased AE, N participants: 2
  Pruritus AE, % participants: 3.6%
  Pruritus AE, N participants: 5
  Psychiatric disorders (SOC) AE, % participants: 19.0%
  Psychiatric disorders (SOC) AE, N participants: 26
  Pyrexia AE, % participants: 5.8%
  Pyrexia AE, N participants: 8
  Rash AE, % participants: 6.6%
  Rash AE, N participants: 9
  Skin and subcutaneous tissue disorders (SOC) AE, % participants: 21.9%
  Skin and subcutaneous tissue disorders (SOC) AE, N participants: 30
  incidence of AEs in SOC Nervous system disorders: 34.3%
[1]; cohort 1 incomplete response or intolerant
  patients with neurologic AEs: 31.8%
[1]; seven events in 5 participants
  participants with neurologic AESI in SOC Psychiatric disorders: 3.6%
[2]; 0-48W, symptomatic patients
  UWDRS Part II score change (mean): −1.7
[2]; Study 301 Full Analysis Set
  UWDRS Part II (0-40), Change from Baseline at 48 weeks, LSM: −0.1
  UWDRS Part II (0-40), Change from Baseline at 48 weeks, Mean: −0.6
[2]; TTM exposure 4 weeks
  UWDRS Part II (0-40) change from baseline, Mean (SD): −0.3 (2.28)
[2]; TTM exposure 12 weeks
  UWDRS Part II (0-40) change from baseline, Mean (SD): −0.4 (2.76)
[2]; TTM exposure 24 weeks
  UWDRS Part II (0-40) change from baseline, Mean (SD): −0.4 (3.42)
[2]; TTM exposure 36 weeks
  UWDRS Part II (0-40) change from baseline, Mean (SD): −0.9 (4.11)
[2]; TTM exposure 48 weeks
  UWDRS Part II (0-40) change from baseline, Mean (SD): −1.2 (4.24)
[2]; TTM exposure 60 weeks
  UWDRS Part II (0-40) change from baseline, Mean (SD): −1.4 (4.35)
[2]; TTM exposure 72 weeks
  UWDRS Part II (0-40) change from baseline, Mean (SD): −1.9 (4.74)
[2]; TTM exposure 96 weeks
  UWDRS Part II (0-40) change from baseline, Mean (SD): −2.5 (6.11)
[2]; TTM exposure 120 weeks
  UWDRS Part II (0-40) change from baseline, Mean (SD): −3.1 (6.82)
[2]; TTM exposure 144 weeks
  UWDRS Part II (0-40) change from baseline, Mean (SD): −3.3 (6.61)
[2]; TTM exposure 168 weeks
  UWDRS Part II (0-40) change from baseline, Mean (SD): −6.2 (10.17)
[2]; TTM exposure 192 weeks
  UWDRS Part II (0-40) change from baseline, Mean (SD): −5.9 (9.88)
[2]; TTM exposure 216 weeks
  UWDRS Part II (0-40) change from baseline, Mean (SD): −7.1 (10.90)
[2]; TTM exposure 240 weeks
  UWDRS Part II (0-40) change from baseline, Mean (SD): −6.6 (10.09)
[2]; TTM exposure 264 weeks
  UWDRS Part II (0-40) change from baseline, Mean (SD): −6.2 (9.02)
[2]; TTM vs SoC, P 0.4430
  UWDRS Part II (0-40), Difference at 48 weeks, LSM: 0.4
[2]; Week 24
  UWDRS Part II (0-40) change from baseline, LSM: −0.4
  UWDRS Part II (0-40) change from baseline, Mean: −0.3
[2]; Week 48
  UWDRS Part II (0-40) change from baseline, LSM: −0.7
  UWDRS Part II (0-40) change from baseline, Mean: −0.7
[2]; Week 72
  UWDRS Part II (0-40) change from baseline, LSM: −1.0
  UWDRS Part II (0-40) change from baseline, Mean: −1.2
[2]; Week 96
  UWDRS Part II (0-40) change from baseline, LSM: −1.1
  UWDRS Part II (0-40) change from baseline, Mean: −1.1
[2]; Week 120
  UWDRS Part II (0-40) change from baseline, LSM: −1.7
  UWDRS Part II (0-40) change from baseline, Mean: −1.4
[2]; Week 144
  UWDRS Part II (0-40) change from baseline, LSM: −2.0
  UWDRS Part II (0-40) change from baseline, Mean: −2.0
[3]
  effect of age on plasma total molybdenum clearance: not a significant covariate
